The test system of this assay is OVCAR-8 ovarian cancer cells. Nature of the assay: Toxicity of peptide sets and individual peptides to OVCAR-8 cells (relative ATP, live/dead imaging). It is filed as cell-based. Particulars: 6 hours, FIGS. 6A-B. As for the experimental part: Image analysis indicated green cells were living and red cells were dead (color not shown).
Incubation of the peptides with OVCAR-8 ovarian cancer cells were incubated with the peptides of the [AA], [II], [WW] peptide sets. […] Red fluorescence (ethidium homodimer-1) was associated with loss of plasma membrane integrity whereas the green fluorescence correlated with intracellular esterase activity of metabolically active cells (color not shown in figures). Pyroptosis is a newly identified cell death modality characterized by the formation of large bubbles on the plasma membrane and cell swelling. Recently pyroptosis has been classified as a regulated cell death (RCD) by Nomenclature Committee on Cell Death (NCCD). Peptide-treated OVCAR-8 cells indicated pyroptotic morphology. One of the pathways mediating pyroptosis is through cleavage of caspase-3.

In the case of KFFWWK, the “toxicity to OVCAR-8 cells” value is recorded as “toxicity”.

For the origin of these results see patent publication US20240083946A1, “SELF-ASSEMBLING PEPTIDES, NANOFIBERS, AND METHODS OF USE” (The Board of Regents of the University of Oklahoma, priority 2021, published 2024).
